Molecules are shown by their SMILES.

For the assay, the target named is σ2R/TMEM97 (Homo sapiens, UniProt Q5BJF2).
Chain of σ2R/TMEM97 (Q5BJF2 whole entry, looked up): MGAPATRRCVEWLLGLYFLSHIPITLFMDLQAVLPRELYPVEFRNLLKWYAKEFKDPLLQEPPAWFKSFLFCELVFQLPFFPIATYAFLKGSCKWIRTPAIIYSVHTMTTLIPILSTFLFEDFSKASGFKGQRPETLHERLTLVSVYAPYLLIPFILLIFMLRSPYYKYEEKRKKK
Protocol: Ki values are calculated from best-fit IC50 determinations performed in triplicate.
The binding affinities (Ki) of all synthetic compounds for σ2R/TMEM97 and σ1R were determined at the Psychoactive Drug Screening Program. Prior to the identification of σ2R as TMEM97, Ki values were measured using σ2R sourced from rat PC12 cells and σ1R sourced from guinea pig brain, but subsequently σ2R/TMEM97 and σ1R binding isotherms were determined using human protein obtained by transfection in HEK293T cells.
As usually defined, the Ki is the dissociation constant of the complex between target and ligand, obtained from inhibition or displacement. Read a high Ki as a looser hold on the target. Take `O=C(C1CCNCC1)N1CC[C@@H]2CC1c1cc(-c3cccc(OC(F)(F)F)c3)ccc12`: the Ki worked out at 0.0354 µM.

The molecule `CN1CCC(C(=O)N2CCC3CC2c2cc(-c4cccc(OC(F)(F)F)c4)ccc23)CC1` (centres unmarked) showed an inhibitory constant (Ki) of 0.0304 µM. The Ki values of the last two molecules are within 1.5-fold of each other.

The molecule `CN1CCC(C(=O)N2CCC3C[C@@H]2c2cc(-c4ccc(C(F)(F)F)cc4)ccc23)CC1` registered a Ki of 0.0351 µM.

Consider `O=C(C1CCN(CCO)CC1)N1CCC2C[C@H]1c1cc(-c3ccc(C(F)(F)F)cc3)ccc12`, for which the Ki is 0.0136 µM.

On to `CS(=O)(=O)c1ccc(-c2ccc3c(c2)[C@@H]2CC3CCN2C(=O)C2CCN(CCO)CC2)cc1`, for which the Ki was 0.834 µM. This Ki lies about 61-fold higher than the previous one.

Turning to `CS(=O)(=O)c1cccc(-c2ccc3c(c2)C2C[C@H]3CCN2C(=O)C2CCN(CCO)CC2)c1`, affinity was put at a Ki of 0.277 µM. This Ki is about 3-fold lower than that of the molecule before.

Molecule `O=C(C1CCN(CCCO)CC1)N1CC[C@@H]2CC1c1cc(-c3cccc(OC(F)(F)F)c3)ccc12` gave an inhibition constant (Ki) of 0.264 µM.

With `O=C(N1CCN(CCO)CC1)N1CCC2C[C@H]1c1cc(-c3ccc(C(F)(F)F)cc3)ccc12`, the Ki came out at 0.955 µM.

With `COCCN1CCC(C(=O)N2CCC3C[C@H]2c2cc(-c4ccc(C(F)(F)F)cc4)ccc23)CC1`, the inhibition constant Ki was 0.0103 µM.

On to `O=C(C1CCN(CCCO)CC1)N1CCC2C[C@H]1c1cc(-c3ccc(C(F)(F)F)cc3)ccc12`, for which the inhibition constant Ki stood at 0.0077 µM.

`COCCN1CC(C(=O)N2CCC3C[C@H]2c2cc(-c4ccc(C(F)(F)F)cc4)ccc23)C1` displayed a Ki of 0.0176 µM.

`O=C(C1CN(CCO)C1)N1CCC2C[C@H]1c1cc(-c3ccc(C(F)(F)F)cc3)ccc12` registered an inhibition constant Ki of 0.0153 µM. This Ki and that of the molecule before are within 1.5-fold of each other.

Molecule `OCCCN1CC[C@@H]2CC1c1cc(-c3ccnc(F)c3)ccc12` came in with a Ki of 0.802 µM. Compared with the last molecule, the Ki is about 52-fold higher.

The molecule `CS(=O)(=O)c1ccc(-c2ccc3c(c2)C2C[C@H]3CCN2CCCO)cc1` registered an inhibition constant Ki of 1.18 µM.

The molecule `OCCCN1CC[C@@H]2CC1c1cc(-c3cccc(OC(F)(F)F)c3)ccc12` displayed an inhibition constant (Ki) of 0.0483 µM.

With `CS(=O)(=O)c1cccc(-c2ccc3c(c2)C2C[C@H]3CCN2CCCO)c1`, affinity was put at a Ki of 1.85 µM.

In the case of `N[C@H]1CC[C@@H](N2CCC3C[C@H]2c2cc(-c4cccc(C(F)(F)F)c4)ccc23)CC1`, the affinity corresponds to a Ki of 0.0308 µM. Compared with the last molecule, the Ki is about 60-fold lower.

With `CN(C)[C@H]1CC[C@@H](N2CCC3C[C@H]2c2cc(-c4cccc(C(F)(F)F)c4)ccc23)CC1`, the inhibition constant (Ki) was 0.0095 µM.

As for `N[C@H]1CC[C@@H](N2CCC3CC2c2cc(-c4cccc(C(F)(F)F)c4)ccc23)CC1` (some centres unmarked), the inhibition constant (Ki) was 0.0079 µM. This Ki and that of the molecule before are within 1.5-fold of each other.

For `N[C@H]1CC[C@H](N2CCC3CC2c2cc(-c4cccc(C(F)(F)F)c4)ccc23)CC1` (some centres unmarked), affinity was put at a Ki of 0.0705 µM.

For `OCCCN1CCC2CC1c1cc(-c3ccc(C(F)(F)F)cc3)ccc12` (centres unmarked), the Ki is 0.011 µM. This Ki lies about 6.4-fold lower than the previous one.

As to `CNCCC(=O)N1CCC2CC1c1cc(-c3cccc(C(F)(F)F)c3)ccc12` (centres unmarked), the affinity, expressed as Ki, was 0.0049 µM. Against the preceding molecule, the Ki is about 2.2-fold lower.

Molecule `Fc1ccc(-c2ccc3c(c2)C2CC3CCCN2C2CCCC2)cc1` (centres unmarked) returned a Ki of 0.153 µM.

Regarding `Cc1ccc(-c2ccc3c(c2)C2CC3CCCN2C2CCCC2)cc1` (centres unmarked), the inhibitory constant (Ki) came to 0.187 µM. The Ki values of the last two molecules are within 1.5-fold of each other.

Consider `N#Cc1ccc(-c2ccc3c(c2)C2CC3CCCN2C2CCCC2)cc1` (centres unmarked), for which the inhibitory constant (Ki) came out at 0.119 µM.

`COc1ccc(-c2ccc3c(c2)C2CC3CCCN2C2CCCC2)cc1` (centres unmarked) had a Ki of 0.194 µM.

In the case of `FC(F)(F)c1ccc(-c2ccc3c(c2)C2CC3CCCN2C2CCCC2)cn1` (centres unmarked), the affinity corresponds to a Ki of 0.336 µM. Against the preceding molecule, the Ki is about 1.7-fold higher.

In the case of `FC(F)(F)c1cccc(-c2ccc3c(c2)C2CC3CCCN2C2CCCC2)c1` (centres unmarked), affinity was put at a Ki of 0.062 µM.

`OC1CCC(N2CCCC3CC2c2cc(-c4ccc(C(F)(F)F)cc4)ccc23)CC1` (centres unmarked): the Ki is 0.039 µM.

`O=C(C1CCNCC1)N1CCCC2CC1c1cc(-c3ccc(C(F)(F)F)cc3)ccc12` (centres unmarked) returned a Ki of 0.0525 µM. This Ki and that of the molecule before are within 1.5-fold of each other.

In turn, `CC(C)N1CCCC2CC1c1cc(-c3ccc(C(F)(F)F)cc3)ccc12` (centres unmarked) returned a Ki of 0.087 µM.

`FC(F)(F)c1ccc(-c2ccc3c(c2)C2CC3CCCN2CC2CCCC2)cc1` (centres unmarked) showed an inhibition constant Ki of 0.099 µM.

`FC(F)(F)c1ccc(-c2ccc3c(c2)C2CC3CCCN2C2CCCCC2)cc1` (centres unmarked) returned a Ki of 0.025 µM. Compared with the last molecule, the Ki is about 4-fold lower.

Molecule `FC(F)(F)c1ccccc1-c1ccc2c(c1)C1CC2CCCN1C1CCCC1` (centres unmarked) had a Ki of 0.549 µM.

Take `FC(F)(F)c1ccc(-c2ccc3c(c2)C2CC3CCCN2)cc1` (centres unmarked): the Ki amounted to 0.021 µM.

These data come from patent publication US20250387403A1, “SELECTIVE SIGMA-2 RECEPTOR LIGANDS AS MODULATORS OF TMEM97” (BOARD OF REGENTS, THE UNIVERSITY OF TEXAS SYSTEM, priority 2022, published 2025).
